The values that follow come from PubChem BioAssay (NCI).

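Where inhibition never reached the appropriate level, the endpoint shown equals the highest concentration tested. Otherwise, values were interpolated linearly from a five-concentration, 48-hour dose response in 96-well plates. TGI: concentration producing complete growth inhibition.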 Where only a bound is given, the exact number is not on record here.

Some test systems named below: OVCAR-8 ovarian; MDA-N; SW-620 colon; U251 CNS; RPMI-8226 leukemia; NCI/ADR-RES ovarian; MOLT-4 leukemia; SK-MEL-2 melanoma; UACC-257 melanoma; KM12 colon; IGROV1 ovarian; SN12C renal; MALME-3M melanoma; HOP-62 NSCLC; A549 NSCLC; HS 578T breast; SNB-75 CNS; OVCAR-4 ovarian; HT29 colon; BT-549 breast.
Holding throughout (experiment): inhibition of tumour cell growth, NCI panel, 48 h

On to `CC[C@@H]1/C=C/C=C/C[C@H](C)[C@@H](O)[C@](C)(O)C(=O)[C@H](C)[C@@H](O)[C@H](C)C(=O)[C@H](C)[C@@H](O)[C@H](C)/C=C/C(=O)O[C@H]2[C@@H](C)[C@@H](CC1)O[C@]1(O[C@H](CC(C)O)[C@H](C)CC1=O)[C@@H]2C` (some centres undefined), for which the TGI is greater than 25 µM with OVCAR-8 ovarian; 10.7 µM in the assay on MDA-N; greater than 25 µM with SW-620 colon; 11.9 µM in the assay on U251 CNS; greater than 13.9 µM with RPMI-8226 leukemia; 14.8 µM with NCI/ADR-RES ovarian. In addition, the TGI with MOLT-4 leukemia came out at 11.3 µM; in the assay on SK-MEL-2 melanoma, 9.61 µM; with UACC-257 melanoma, 3.54 µM; in the assay on KM12 colon, 13 µM; in the assay on IGROV1 ovarian, 16.4 µM; in the assay on SN12C renal, 8.72 µM. For the same compound, the TGI in the assay with MALME-3M melanoma is 14.2 µM; with HOP-62 NSCLC, 8.41 µM; in the assay on A549 NSCLC it was greater than 16.2 µM; in the assay on HS 578T breast, greater than 18.5 µM; in the assay with SNB-75 CNS it was greater than 25 µM; in the assay on OVCAR-4 ovarian it was greater than 19.7 µM. Further, the TGI was 8.78 µM in the assay with HT29 colon and 10.9 µM in the assay with BT-549 breast.
Regarding `C=C(C)[C@@H](C(=O)OC)N1C(=O)c2ccccc2C1=O`, the TGI in the assay on OVCAR-8 ovarian, in the assay with MDA-N, in the assay with SW-620 colon, with U251 CNS, in the assay on RPMI-8226 leukemia and in the assay on NCI/ADR-RES ovarian was greater than 100 µM in each case. Also, the TGI with MOLT-4 leukemia, in the assay with SK-MEL-2 melanoma, with UACC-257 melanoma, with KM12 colon, in the assay with IGROV1 ovarian and in the assay on SN12C renal was greater than 100 µM in each case. The TGI in the assay with MALME-3M melanoma, in the assay with HOP-62 NSCLC, in the assay with A549 NSCLC, with HS 578T breast, in the assay with SNB-75 CNS and with OVCAR-4 ovarian was greater than 100 µM throughout. Further, the TGI in the assay with HT29 colon and with BT-549 breast was greater than 100 µM in each case.
In the case of `CCCN(CCCCC(NC(C)=O)C(=O)NCc1ccccc1)C(=O)N(CCCl)N=O` (centres undefined), the TGI in the assay with OVCAR-8 ovarian is greater than 100 µM; with MDA-N, greater than 100 µM; with SW-620 colon, greater than 100 µM; in the assay with U251 CNS, greater than 74.9 µM; in the assay with RPMI-8226 leukemia, greater than 100 µM; in the assay with NCI/ADR-RES ovarian it was greater than 100 µM. In addition, the TGI in the assay with MOLT-4 leukemia, in the assay on SK-MEL-2 melanoma, with UACC-257 melanoma, with KM12 colon, with IGROV1 ovarian and with SN12C renal was greater than 100 µM each time. For the same compound, the TGI is greater than 100 µM in the assay on MALME-3M melanoma; 78.3 µM in the assay with HOP-62 NSCLC; greater than 100 µM in the assay on A549 NSCLC; greater than 100 µM with HS 578T breast; 90.8 µM with SNB-75 CNS; greater than 100 µM in the assay on OVCAR-4 ovarian. The TGI with HT29 colon and in the assay on BT-549 breast was greater than 100 µM each time.
Consider `O=C(CNc1ccc(Cl)cc1)Nn1c(-c2ccccc2)nc2ccccc2c1=O`, for which the TGI with OVCAR-8 ovarian came out at 5.53 µM; with MDA-N it was 22.5 µM; in the assay with SW-620 colon, 11.9 µM; with U251 CNS, 5.02 µM; in the assay with RPMI-8226 leukemia, 45.2 µM; in the assay with NCI/ADR-RES ovarian, 19 µM. For the same compound, the TGI in the assay with MOLT-4 leukemia was 16.2 µM; in the assay with SK-MEL-2 melanoma, 30.4 µM; with UACC-257 melanoma, 33.2 µM; with KM12 colon, 24.5 µM; in the assay with IGROV1 ovarian, 15.7 µM; in the assay on SN12C renal it was 20.9 µM. For the same compound, the TGI came to 13.7 µM with MALME-3M melanoma; 19.9 µM in the assay with HOP-62 NSCLC; 29.4 µM in the assay on A549 NSCLC; 67 µM with HS 578T breast; 24.1 µM in the assay with SNB-75 CNS; 27 µM in the assay with OVCAR-4 ovarian. The TGI in the assay with HT29 colon is 21.1 µM; in the assay with BT-549 breast, 6.29 µM.
In the case of `C[N+](C)(N)CCC[N+](C)(C)N`, the TGI in the assay on OVCAR-8 ovarian, in the assay on MDA-N, with SW-620 colon, in the assay on U251 CNS, in the assay on RPMI-8226 leukemia and in the assay with NCI/ADR-RES ovarian was greater than 100 µM in each case. The TGI in the assay on MOLT-4 leukemia, in the assay with SK-MEL-2 melanoma, in the assay with UACC-257 melanoma, in the assay on KM12 colon, with IGROV1 ovarian and with SN12C renal was greater than 100 µM each time. For the same compound, the TGI with MALME-3M melanoma, with HOP-62 NSCLC, in the assay on A549 NSCLC, in the assay with HS 578T breast, with SNB-75 CNS and with OVCAR-4 ovarian was greater than 100 µM in each case. Also, the TGI in the assay with HT29 colon and with BT-549 breast was greater than 100 µM each time.
`N#Cc1nc(COCCOCc2ccccc2)oc1N`: the TGI in the assay on OVCAR-8 ovarian, in the assay on MDA-N, in the assay with SW-620 colon, with U251 CNS, in the assay with RPMI-8226 leukemia and in the assay with NCI/ADR-RES ovarian was greater than 100 µM each time. In addition, the TGI in the assay on MOLT-4 leukemia, with SK-MEL-2 melanoma, in the assay on UACC-257 melanoma, in the assay with KM12 colon, with IGROV1 ovarian and in the assay with SN12C renal was greater than 100 µM in each case. The TGI in the assay on MALME-3M melanoma, in the assay with HOP-62 NSCLC, in the assay on A549 NSCLC, in the assay with HS 578T breast, in the assay with SNB-75 CNS and with OVCAR-4 ovarian was greater than 100 µM in each case. Also, the TGI in the assay on HT29 colon and in the assay with BT-549 breast was greater than 100 µM each time.
As to `C=C1CC[C@@]2(OC1)OC1C[C@H]3[C@@H]4CC=C5C[C@@H](O)CC(OC6OCC(OC(=O)[C@@H](O)[C@@H](C)CC)C(OC(C)=O)C6OC6OC(C)C(O)C(O)C6O)[C@]5(C)[C@H]4CC[C@]3(C)C1[C@@H]2C` (some centres undefined), the TGI is 4.31 µM in the assay on OVCAR-8 ovarian; 3.51 µM with MDA-N; 4.51 µM in the assay with SW-620 colon; 3.21 µM in the assay on U251 CNS; 4.89 µM in the assay on RPMI-8226 leukemia; 6 µM in the assay with NCI/ADR-RES ovarian. Also, the TGI in the assay with MOLT-4 leukemia stood at 3.54 µM; in the assay with SK-MEL-2 melanoma it was 3.11 µM; in the assay on UACC-257 melanoma, 5.48 µM; with KM12 colon it was 5.13 µM; with IGROV1 ovarian, 7.79 µM; with SN12C renal, 4 µM. Also, the TGI was greater than 10 µM with MALME-3M melanoma; 4.73 µM in the assay on A549 NSCLC; greater than 10 µM with HS 578T breast; 4.84 µM with SNB-75 CNS; greater than 10 µM in the assay on OVCAR-4 ovarian; greater than 10 µM with HT29 colon. The same compound returned a TGI in the assay with BT-549 breast greater than 10 µM.
